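Grown in 96-well plates, cells were treated for 48 hours with each compound at five concentrations. Insufficient inhibition: endpoint recorded as highest concentration tested. GI50 = concentration required for 50% inhibition of growth. TGI marks complete inhibition of growth.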
Key:
Experiment in all cases: growth of human tumour cells (NCI), 48 h
786-0 renal = tested on: 786-0 renal
A498 renal = tested on: A498 renal
A549 NSCLC = tested on: A549 NSCLC
ACHN renal = tested on: ACHN renal
BT-549 breast = tested on: BT-549 breast
CCRF-CEM leukemia = tested on: CCRF-CEM leukemia
COLO 205 colon = tested on: COLO 205 colon
DU-145 prostate = tested on: DU-145 prostate
EKVX NSCLC = tested on: EKVX NSCLC
HCC-2998 colon = tested on: HCC-2998 colon
HCT-116 colon = tested on: HCT-116 colon
HCT-15 colon = tested on: HCT-15 colon
HL-60(TB) leukemia = tested on: HL-60(TB) leukemia
HOP-62 NSCLC = tested on: HOP-62 NSCLC
HOP-92 NSCLC = tested on: HOP-92 NSCLC
HS 578T breast = tested on: HS 578T breast
HT29 colon = tested on: HT29 colon
IGROV1 ovarian = tested on: IGROV1 ovarian
K-562 leukemia = tested on: K-562 leukemia
KM12 colon = tested on: KM12 colon
LOX IMVI melanoma = tested on: LOX IMVI melanoma
M14 melanoma = tested on: M14 melanoma
MALME-3M melanoma = tested on: MALME-3M melanoma
MCF7 breast = tested on: MCF7 breast
MDA-MB-231 breast = tested on: MDA-MB-231 breast
MDA-MB-435 = tested on: MDA-MB-435
MOLT-4 leukemia = tested on: MOLT-4 leukemia
NCI-H226 lung = tested on: NCI-H226 lung
NCI-H23 lung = tested on: NCI-H23 lung
NCI-H460 lung = tested on: NCI-H460 lung
NCI-H522 lung = tested on: NCI-H522 lung
NCI/ADR-RES ovarian = tested on: NCI/ADR-RES ovarian
OVCAR-3 ovarian = tested on: OVCAR-3 ovarian
OVCAR-4 ovarian = tested on: OVCAR-4 ovarian
OVCAR-5 ovarian = tested on: OVCAR-5 ovarian
OVCAR-8 ovarian = tested on: OVCAR-8 ovarian
PC-3 prostate = tested on: PC-3 prostate
RPMI-8226 leukemia = tested on: RPMI-8226 leukemia
RXF 393 renal = tested on: RXF 393 renal
SF-268 CNS = tested on: SF-268 CNS
SF-295 CNS = tested on: SF-295 CNS
SF-539 CNS = tested on: SF-539 CNS
SK-MEL-2 melanoma = tested on: SK-MEL-2 melanoma
SK-MEL-28 melanoma = tested on: SK-MEL-28 melanoma
SK-MEL-5 melanoma = tested on: SK-MEL-5 melanoma
SK-OV-3 ovarian = tested on: SK-OV-3 ovarian
SN12C renal = tested on: SN12C renal
SNB-19 CNS = tested on: SNB-19 CNS
SNB-75 CNS = tested on: SNB-75 CNS
SW-620 colon = tested on: SW-620 colon
T-47D breast = tested on: T-47D breast
TK-10 renal = tested on: TK-10 renal
U251 CNS = tested on: U251 CNS
UACC-257 melanoma = tested on: UACC-257 melanoma
UACC-62 melanoma = tested on: UACC-62 melanoma
UO-31 renal = tested on: UO-31 renal

For `CC(=O)c1cc(C(=O)c2ccc3c(c2)Sc2ccccc2N3)c2c(C)cccn12`, the GI50 (786-0 renal) was 488 nM, the TGI (786-0 renal) was 7.29 µM and the GI50 (A498 renal) was 141 nM. For the same compound, the TGI (A498 renal) was 1900 nM, the GI50 (A549 NSCLC) was 265 nM and the TGI (A549 NSCLC) was 40.4 µM. For the same compound, the GI50 (ACHN renal) was 1420 nM, the TGI (ACHN renal) was over 100 µM and the GI50 (BT-549 breast) was 777 nM. The TGI (BT-549 breast) was 23.8 µM, the GI50 (CCRF-CEM leukemia) was 332 nM and the TGI (CCRF-CEM leukemia) was over 100 µM. For the same compound, the GI50 (COLO 205 colon) was 187 nM, the TGI (COLO 205 colon) was 426 nM and the GI50 (DU-145 prostate) was 380 nM. For the same compound, the TGI (DU-145 prostate) was over 34.8 µM, the GI50 (EKVX NSCLC) was 476 nM and the TGI (EKVX NSCLC) was over 100 µM. It also gave a GI50 (HCC-2998 colon) of 1650 nM, a TGI (HCC-2998 colon) of over 100 µM and a GI50 (HCT-116 colon) of 270 nM. It also gave a TGI (HCT-116 colon) of 10.5 µM, a GI50 (HCT-15 colon) of 294 nM and a TGI (HCT-15 colon) of over 100 µM. The GI50 (HL-60(TB) leukemia) was 296 nM, the TGI (HL-60(TB) leukemia) was 977 nM and the GI50 (HOP-62 NSCLC) was 250 nM. The TGI (HOP-62 NSCLC) was 36.9 µM, the GI50 (HOP-92 NSCLC) was 767 nM and the TGI (HOP-92 NSCLC) was 22.6 µM. It also gave a GI50 (HS 578T breast) of 266 nM, a TGI (HS 578T breast) of over 36.3 µM and a GI50 (HT29 colon) of 272 nM. The TGI (HT29 colon) was 1800 nM, the GI50 (IGROV1 ovarian) was 621 nM and the TGI (IGROV1 ovarian) was over 100 µM. For the same compound, the GI50 (K-562 leukemia) was 112 nM, the TGI (K-562 leukemia) was over 100 µM and the GI50 (KM12 colon) was 307 nM. For the same compound, the TGI (KM12 colon) was over 100 µM, the GI50 (LOX IMVI melanoma) was 595 nM and the TGI (LOX IMVI melanoma) was 4.61 µM. The GI50 (M14 melanoma) was 198 nM, the TGI (M14 melanoma) was 5.5 µM and the GI50 (MALME-3M melanoma) was 13.6 µM. For the same compound, the TGI (MALME-3M melanoma) was over 100 µM, the GI50 (MCF7 breast) was 117 nM and the TGI (MCF7 breast) was over 100 µM. The GI50 (MDA-MB-231 breast) was 488 nM, the TGI (MDA-MB-231 breast) was 10.6 µM and the GI50 (MDA-MB-435) was 46.4 nM. It also gave a TGI (MDA-MB-435) of 275 nM, a GI50 (MOLT-4 leukemia) of 556 nM and a TGI (MOLT-4 leukemia) of over 100 µM. It also gave a GI50 (NCI-H226 lung) of 1950 nM, a TGI (NCI-H226 lung) of over 52.3 µM and a GI50 (NCI-H23 lung) of 611 nM. The TGI (NCI-H23 lung) was over 100 µM, the GI50 (NCI-H460 lung) was 213 nM and the TGI (NCI-H460 lung) was 4.76 µM. For the same compound, the GI50 (NCI-H522 lung) was 32.8 nM, the TGI (NCI-H522 lung) was 199 nM and the GI50 (NCI/ADR-RES ovarian) was 184 nM. The TGI (NCI/ADR-RES ovarian) was 18 µM, the GI50 (OVCAR-3 ovarian) was 261 nM and the TGI (OVCAR-3 ovarian) was 838 nM. The GI50 (OVCAR-4 ovarian) was 2130 nM, the TGI (OVCAR-4 ovarian) was over 100 µM and the GI50 (OVCAR-5 ovarian) was 630 nM. It also gave a TGI (OVCAR-5 ovarian) of over 100 µM, a GI50 (OVCAR-8 ovarian) of 374 nM and a TGI (OVCAR-8 ovarian) of over 31.8 µM. The GI50 (PC-3 prostate) was 321 nM, the TGI (PC-3 prostate) was over 100 µM and the GI50 (RPMI-8226 leukemia) was 412 nM. It also gave a TGI (RPMI-8226 leukemia) of 83.4 µM, a GI50 (RXF 393 renal) of 252 nM and a TGI (RXF 393 renal) of 2370 nM. The GI50 (SF-268 CNS) was 915 nM, the TGI (SF-268 CNS) was over 100 µM and the GI50 (SF-295 CNS) was 188 nM. The TGI (SF-295 CNS) was 15.8 µM, the GI50 (SF-539 CNS) was 234 nM and the TGI (SF-539 CNS) was 1130 nM. It also gave a GI50 (SK-MEL-2 melanoma) of 300 nM, a TGI (SK-MEL-2 melanoma) of over 66.2 µM and a GI50 (SK-MEL-28 melanoma) of 2510 nM. The TGI (SK-MEL-28 melanoma) was over 100 µM, the GI50 (SK-MEL-5 melanoma) was 259 nM and the TGI (SK-MEL-5 melanoma) was 4.56 µM. It also gave a GI50 (SK-OV-3 ovarian) of 266 nM, a TGI (SK-OV-3 ovarian) of 10.5 µM and a GI50 (SN12C renal) of 686 nM. It also gave a TGI (SN12C renal) of over 100 µM, a GI50 (SNB-19 CNS) of 246 nM and a TGI (SNB-19 CNS) of over 100 µM. For the same compound, the GI50 (SNB-75 CNS) was 178 nM, the TGI (SNB-75 CNS) was 1040 nM and the GI50 (SW-620 colon) was 265 nM. It also gave a TGI (SW-620 colon) of over 100 µM, a GI50 (T-47D breast) of 314 nM and a TGI (T-47D breast) of over 68.5 µM. It also gave a GI50 (TK-10 renal) of 4.73 µM, a TGI (TK-10 renal) of over 100 µM and a GI50 (U251 CNS) of 325 nM. It also gave a TGI (U251 CNS) of 24 µM, a GI50 (UACC-257 melanoma) of 2390 nM and a TGI (UACC-257 melanoma) of over 100 µM. The GI50 (UACC-62 melanoma) was 145 nM, the TGI (UACC-62 melanoma) was 38.1 µM and the GI50 (UO-31 renal) was 925 nM. It also gave a TGI (UO-31 renal) of 98.4 µM.

Reference: PubChem BioAssay (NCI)
